Patent US20050202424A1, “Regulators of biofilm formation and uses thereof” (priority 2001, published 2005)
Values after ≈ are worked out from the molar mass of the structure shown.

Columns and labels:
PA14 RSCV = assay: Resistance of PA14 RSCV colonies to antibiotics on plates; assay type: cell-based, Pseudomonas aeruginosa; details: for resistance of PA14 RSCV colonies: 8 individual colonies
Method: To induce such phenotypic variants, an overnight culture of P. aeruginosa strain PA14 (UCBPP-PA14) was inoculated onto Luria-Bertani (LB) containing 200 μg/ml of kanamycin, incubated at 37° C. for 48 hours, at which time, antibiotic resistant rough small variants were isolated. Antibiotic resistant colonies arose at a frequency of 10^−6-10^−7. […] In addition to being resistant to kanamycin, (up to 40 times the susceptibility level of the wild-type), 8 individual PA14 RSCV colonies tested were also resistant to amikacin (30 μg/ml), carbenicillin (300 μg/ml), gentamicin (30 μg/ml), tobramycin (10 μg/ml), and tetracycline (150 μg/ml). Consistent with this latter result, antibiotic resistant variants were also obtained at frequencies of about 10^−7 by plating overnight cultures of PA14 on media containing similar concentrations of the antibiotics mentioned above.

[1] = test system: PA14 and PA14 RSCV biofilms; assay: Biofilm resistance to tobramycin in flow chambers (viable biomass by CSLM of GFP-tagged cells); assay type: cell-based, Pseudomonas aeruginosa; details: continuous flow of tobramycin 200 μg/ml on established biofilms
Method: To determine whether the antibiotic resistant phenotype of PA14 RSCV is associated with altered biofilm formation, PA14 RSCV was cultured under biofilm-forming conditions as follows. For biofilm characterization, PA14 RSCV biofilms were cultivated under continuous culture conditions in flow-chambers with channel dimensions of 12 by 52 by 2 mm. Flow media consisted of M63 supplemented with 0.5% casamino acids and 0.3% glucose. For measurement of biofilm resistance, bacteria were cultivated in flow-chambers with channel dimensions of 1 by 40 by 4 mm (Stovall Inc., Greensboro, N.C.). In this case, flow media consisted of FAB medium (0.1 mM CaCl2, 0.01 mM Fe-EDTA, 0.15 mM NH4SO4, 0.33 mM Na2HPO4, 0.2 mM KH2PO4 and 1 mM MgCl2) supplemented with casamino acids (0.5%) and sodium citrate (10 mM). Flow-cells in both cases were inoculated with 100-fold dilutions of overnight cultures of PA14 and PA14 RSCV carrying the green fluorescent protein (GFP) in plasmid SMC21, a derivative of pSMC2 (Bloemberg et al., Appl. Environ. Microbiol. 63: 4543-4551, 1997). […] The volume (in μm^3) of individual biofilm structures was determined from serial sections using ImageSpace software (Molecular Dynamics, Sunnyvale, Calif.).
Viable biomass was measured by CSLM analysis of GFP-tagged PA14 and PA14 RSCV cells using GFP expression as a viability marker as described previously (FIG. 1E).

[2] = test system: P. aeruginosa small colony variants in CF sputum samples; assay: Antibiotic resistant small colony variants in CF sputum samples plated on cetrimide agar with and without antibiotics; assay type: cell-based, Pseudomonas aeruginosa
Method: Five CF sputum samples from the Clinical Microbiology Laboratory at Massachusetts General Hospital were suspended in 5 ml of 10 mM MgSO4. Serial dilutions of the samples were then plated onto cetrimide agar plates with and without antibiotics. The plates were screened for the presence of P. aeruginosa after 24 and 48 hours of incubation at 37° C. The identity of the colonies was later confirmed by probing colony lifts with the exotoxin A gene from P. aeruginosa. To this end, the EcoRI-HindIII fragment of plasmid pRGI containing the exoA gene (Samadpour et al., J. Clin. Microbiol. 26:2319-23, 1988) was gel isolated and labeled using a random priming kit (Boehringer, Mannheim, Indianapolis, Ind.). Colonies were transferred to nylon membranes and hybridizations were performed according to the manufacturer's recommendations (NEN Research Products, Boston, Mass.). Identification of colonies carrying the exoA gene was then performed using a Phosphorimager (Amersham Pharmacia Biotech Inc., Piscataway, N.J.).
The presence of P. aeruginosa antibiotic resistant small colony variants was determined by plating CF sputum samples on cetrimide agar with and without the indicated antibiotics. […]

wild-type PA14 = assay: Minimal inhibitory concentration of kanamycin in liquid culture; assay type: cell-based; details: Pseudomonas aeruginosa; PA14 in M63 liquid medium; read-out: concentration of kanamycin required to inhibit growth (MIC)
Method: Phenotypic variation is a common phenomenon in Gram-negative bacteria that often involves environmentally regulated changes in observable phenotypes produced by modifications in surface components. The effect that different environmental stimuli had on the appearance of kanamycin-resistant phenotypic variants was examined. Bacteria were grown in LB broth, or in supplemented LB with appropriate antibiotics at the indicated temperature with aeration. […] Moreover, the frequency of variants increased 200-fold when plates were incubated at 25° C. compared to 37° C. (FIG. 2A). Finally, a dramatic 10^6-fold increase was obtained on minimal M63 salts as compared to LB medium (FIG. 2A). Minimal salt media consisted of M63 supplemented with 0.3% glucose, 1 mM MgSO4, and 0.5% casamino acids. Importantly, there was a correlation between the frequency of appearance of kanamycin resistant variants on plates and minimal inhibitory concentrations (MICs) of kanamycin in liquid culture for the wild-type PA14 using the culture conditions described above (FIG. 2B).

[3] = Sample 5, patient on Amikacin(IV)/Ceftazidime(IV)
[4] = Sample 38, patient on Tobramycin (I)/Levofloxacin
[5] = Sample 41, no antibiotic treatment
[6] = Sample 42, no antibiotic treatment
[7] = Sample 43, no antibiotic treatment

| Compound | resistance of PA14 RSCV colonies (PA14 RSCV; tobramycin 10 μg/ml) | resistance of PA14 RSCV biofilm to tobramycin treatment versus wild-type PA14 biofilm [1] | Variants resistant to antibiotic (%) [2, 3] [%] | Variants resistant to antibiotic (%) [2, 4] [%] | Variants resistant to antibiotic (%) [2, 5] [%] | Variants resistant to antibiotic (%) [2, 6] [%] | Variants resistant to antibiotic (%) [2, 7] [%] | resistance of PA14 RSCV colonies (PA14 RSCV; amikacin 30 μg/ml) | resistance of PA14 RSCV colonies (PA14 RSCV; carbenicillin 300 μg/ml) | resistance to kanamycin relative to the susceptibility level of the wild-type (PA14 RSCV; PA14 RSCV colonies) | MIC (wild-type PA14) [µg/mL] | resistance of PA14 RSCV colonies (PA14 RSCV; gentamicin 30 μg/ml) |
| --- | --- | --- | --- | --- | --- | --- | --- | --- | --- | --- | --- | --- |
| NC[C@H]1O[C@H](O[C@H]2[C@H](O)[C@@H](O[C@H]3O[C@H](CO)[C@@H](O)[C@H](N)[C@H]3O)[C@H](N)C[C@@H]2N)[C@H](N)C[C@@H]1O [tobramycin] | resistant | more resistant | 50 | 100 | 0.10 | 0 | 0.5 | – | – | – | – | – |
| NCC[C@H](O)C(=O)N[C@@H]1C[C@H](N)[C@@H](O[C@H]2O[C@H](CN)[C@@H](O)[C@H](O)[C@H]2O)[C@H](O)[C@H]1O[C@H]1O[C@H](CO)[C@@H](O)[C@H](N)[C@H]1O [amikacin] | – | – | 100 | 100 | 15 | 5 | 0.2 | resistant | – | – | – | – |
| CC1(C)S[C@@H]2[C@H](NC(=O)C(C(=O)O)c3ccccc3)C(=O)N2[C@H]1C(=O)O (some centres unmarked) [carbenicillin] | – | – | – | – | – | – | – | – | resistant | – | – | – |
| NC[C@H]1O[C@H](O[C@H]2[C@H](O)[C@@H](O[C@H]3O[C@H](CO)[C@@H](O)[C@H](N)[C@H]3O)[C@H](N)C[C@@H]2N)[C@H](O)[C@@H](O)[C@@H]1O [kanamycin] | – | – | – | – | – | – | – | – | – | up to 40 times | 475 (≈ 980 µM) | – |
| gentamicin | – | – | 100 | 100 | 10 | 6.6 | 0.5 | – | – | – | – | resistant |
| CN(C)[C@@H]1C(O)=C(C(N)=O)C(=O)[C@@]2(O)C(O)=C3C(=O)c4c(O)cccc4[C@@](C)(O)[C@H]3C[C@@H]12 [tetracycline] | – | – | 30 | 32 | 0 | 0 | – | – | – | – | – | – |
